Reference: patent publication US20230058189A1, “QUINOLIN-4-ONE AND 4(1H)-CINNOLINONE COMPOUNDS AND METHODS OF USING SAME” (Frequency Therapeutics, Inc., priority 2019, published 2023)

Legend:
Assay type in all cases: biochemical
GSK3α = GSK3α (Homo sapiens, UniProt P49840); test: GSK3α in vitro enzymatic assay (Kinase-Glo Max luminescence); conditions: recombinant human GSK3, 10 μM ATP; approximate values; read-out: Potency GSK3alpha
Protocol: (§1) Enzymatic activities of compounds of the present disclosure can be tested using recombinant human GSK3 in an in vitro enzymatic assay to determine the ability of the compounds of the present disclosure to inhibit GSK3α and GSK3β.
(§2) The assay was performed using Kinase-Glo® Max luminescence kinase assay kit (Promega). The assay measures kinase activity by quantitating the amount of ATP remaining in solution following a kinase reaction. The luminescent signal from the assay is correlated with the amount of ATP present and is inversely correlated with the amount of kinase activity.
(§3) To perform the assay, compounds were diluted in 10% DMSO and 5 μl of the dilution was added to a 50 μl reaction so that the final concentration of DMSO was 1% in all of reactions. The enzymatic reactions were conducted at 30° C. for 40 minutes. The 50 μl reaction mixture contained 40 mM Tris, pH 7.4, 10 mM MgCl2, 0.1 mg/ml BSA, 2 mM DTT, 0.1 mg/ml GSK tide substrate, 10 uM ATP and GSK3. After the enzymatic reaction, 50 μl of Kinase-Glo Max Luminescence kinase assay solution (Promega) was added to each reaction and plates were incubated for 15 minutes at room temperature. Luminescence signal was measured using a BioTek Synergy 2 microplate reader.
(§4) Kinase activity assays were performed in duplicate at each concentration. The luminescence data were analyzed using the computer software, GraphPad Prism. The difference between luminescence intensities in the absence of Kinase (Lut) and in the presence of Kinase (Luc) was defined as 100% activity (Lut-Luc). Using luminescence signal (Lu) in the presence of the compound, percent activity was calculated as: % activity={(Lut-Lu)/(Lut-Luc)}×100%, where Lu=the luminescence intensity in the presence of the compound (all percent activities below zero were shown zero in the table).
(§5) The values of percent activity versus a series of compound concentrations were then plotted using non-linear regression analysis of Sigmoidal dose-response curve generated with the equation Y=B+(T−B)/1+10((LogEC50−X)×Hill Slope), where Y=percent activity, B=minimum percent activity, T=maximum percent activity, X=logarithm of compound and Hill Slope=slope factor or Hill coefficient. The ICs, value was determined by the concentration causing a half-maximal percent activity.

LSD2 = target: T1, LSD2 (Homo sapiens, UniProt Q8NB78); test: LSD2 A-screen (AlphaScreen) demethylase enzymatic assay; conditions: approximate values; for inhibition at 50 µM: 50 μM compound, read-out: Potency LSD-2 % Inhibition at 50 μM; for IC50: read-out: Potency LSD-2 IC50
T1 sequence (Q8NB78 1-822): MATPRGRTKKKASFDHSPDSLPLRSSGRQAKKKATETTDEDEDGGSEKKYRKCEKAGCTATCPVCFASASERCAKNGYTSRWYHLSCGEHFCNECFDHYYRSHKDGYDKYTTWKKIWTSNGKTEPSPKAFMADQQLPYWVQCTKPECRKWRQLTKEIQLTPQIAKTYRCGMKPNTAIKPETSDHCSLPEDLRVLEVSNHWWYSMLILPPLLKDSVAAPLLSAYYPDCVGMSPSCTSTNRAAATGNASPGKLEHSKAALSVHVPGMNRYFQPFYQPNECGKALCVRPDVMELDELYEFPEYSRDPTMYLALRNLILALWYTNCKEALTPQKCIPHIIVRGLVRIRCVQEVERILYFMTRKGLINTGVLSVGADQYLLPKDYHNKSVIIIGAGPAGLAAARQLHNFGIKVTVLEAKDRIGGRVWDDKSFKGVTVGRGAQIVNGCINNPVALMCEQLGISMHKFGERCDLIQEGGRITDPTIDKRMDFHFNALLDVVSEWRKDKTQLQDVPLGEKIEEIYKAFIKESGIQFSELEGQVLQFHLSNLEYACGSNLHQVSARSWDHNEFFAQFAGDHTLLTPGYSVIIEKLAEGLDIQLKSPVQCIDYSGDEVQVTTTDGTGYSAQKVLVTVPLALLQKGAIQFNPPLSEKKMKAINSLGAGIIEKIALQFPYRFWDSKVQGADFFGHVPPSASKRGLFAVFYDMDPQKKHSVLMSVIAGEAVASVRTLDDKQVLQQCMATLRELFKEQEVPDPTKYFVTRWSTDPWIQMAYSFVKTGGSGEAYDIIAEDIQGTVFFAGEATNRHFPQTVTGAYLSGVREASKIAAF
Protocol: (§6) Enzymatic activities of compounds of the present disclosure can be tested with recombinant human LSD using an in vitro enzymatic assay to determine the ability of the compounds of the present disclosure to inhibit LSD-1 and LSD2. Examples of the assay are provided below.
(§7) All of the enzymatic reactions were conducted in duplicate at room temperature for 60 minutes in a 10 μL mixture containing assay buffer, histone H3 peptide substrate, demthylase enzyme, and the test compound. These 10 μL reactions were carried out in wells of a 384-well Optiplate (PerkinElmer). The dilution of the compounds was first performed in 100% DMSO with the highest concentration at 5 mM Each intermediate compound dilution (in 100% DMSO) was then directly diluted 30× fold into assay buffer for 3.3× concentration (DMSO). […] From this intermediate step, 3 μL of compound was added to 4 μL of demethylase enzyme dilution was incubated for 30 minutes at room temperature. After this incubation, 3 μL of peptide substrate was added. The final DMSO concentration was 1%. After enzymatic reactions, 5 μL of anti-Mouse or anti-Rabbit Acceptor beads (PerkinElmer, diluted 1:500 with 1× detection buffer) and […] (BPS, diluted 1:800 with 1× detection buffer) were added to the reaction mix. After brief shaking, the plate was incubated for 30 minutes. Finally, 10 μL of AlphaScreen™ Streptavidin-conjugated donor beads (Perkin, diluted 1:125 with 1× detection buffer) were added. After 30 minutes, the samples were measured in an AlphaScreen microplate reader (EnSpire Alpha 2390 Multilabel Reader, Perkin Elmer).
(§8) Enzyme activity assays were performed in duplicates at each concentration. The A-screen intensity data were analyzed and compared. In the absence of the compound, the intensity in each data set was defined as 100% (Ce) activity. In the absence of enzyme, the intensity in each data set was defined as 0% (C0) activity. The percent activity in the presence of each compound was calculated according to the following equation: % activity=(C−C0)/(Ce−C0), where C=the intensity in the presence of the compound.
as §5, with “value” for “values”, “was” for “were”, “IC50” for “ICs,”

LSD-1 = LSD-1 (Homo sapiens, UniProt O60341); test: LSD-1 A-screen (AlphaScreen) demethylase enzymatic assay; conditions: approximate values; for inhibition at 50 µM: 50 μM compound, read-out: Potency LSD-1 % Inhibition at 50 μM; for IC50: read-out: Potency LSD-1 IC50
Protocol: as §6, §7, §8
as §5, with “value” for “values”, “was” for “were”, “IC50” for “ICs,”

GSK3β = GSK3β (Homo sapiens, UniProt P49841); test: GSK3β in vitro enzymatic assay (Kinase-Glo Max luminescence); conditions: recombinant human GSK3, 10 μM ATP; approximate values; read-out: Potency GSK3beta
Protocol: as §1, §2, §3, §4, §5

GSK3α, sequence (P49840 whole entry): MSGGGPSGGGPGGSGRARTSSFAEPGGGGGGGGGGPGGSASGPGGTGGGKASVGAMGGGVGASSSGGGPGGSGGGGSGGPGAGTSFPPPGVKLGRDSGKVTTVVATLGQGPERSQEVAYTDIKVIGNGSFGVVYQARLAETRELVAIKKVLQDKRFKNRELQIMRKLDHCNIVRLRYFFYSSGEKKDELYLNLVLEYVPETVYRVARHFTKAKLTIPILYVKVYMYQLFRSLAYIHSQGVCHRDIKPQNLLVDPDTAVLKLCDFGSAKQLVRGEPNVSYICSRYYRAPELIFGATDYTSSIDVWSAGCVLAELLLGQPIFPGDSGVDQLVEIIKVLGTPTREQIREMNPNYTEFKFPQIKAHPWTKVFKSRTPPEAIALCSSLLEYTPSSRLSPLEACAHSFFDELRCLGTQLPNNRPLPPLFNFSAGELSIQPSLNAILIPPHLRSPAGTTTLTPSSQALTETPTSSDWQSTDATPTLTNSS
GSK3β, sequence (P49841 whole entry): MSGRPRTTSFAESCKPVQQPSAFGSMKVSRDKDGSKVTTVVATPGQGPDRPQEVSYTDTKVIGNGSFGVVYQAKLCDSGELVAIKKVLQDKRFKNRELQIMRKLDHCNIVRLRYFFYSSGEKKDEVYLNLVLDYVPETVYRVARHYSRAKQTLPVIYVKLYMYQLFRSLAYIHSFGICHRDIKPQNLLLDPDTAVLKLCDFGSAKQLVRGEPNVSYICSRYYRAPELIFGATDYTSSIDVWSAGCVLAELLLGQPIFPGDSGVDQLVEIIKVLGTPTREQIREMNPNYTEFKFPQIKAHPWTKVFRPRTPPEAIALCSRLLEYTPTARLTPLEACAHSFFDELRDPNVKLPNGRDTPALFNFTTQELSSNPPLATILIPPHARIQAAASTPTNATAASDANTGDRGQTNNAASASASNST

SMILES	IC50 (GSK3α)	inhibition at 50 µM (LSD2)	inhibition at 50 µM (LSD-1)	IC50 (GSK3β)	IC50 (LSD-1)	IC50 (LSD2)
CCn1cc(C#N)c(=O)c2c(N)c(F)c(NCCc3ccccc3)cc21 [Compound I-67]	2 nM	4%	8%	1.9 nM		
CCn1cc(C(=O)O)c(=O)c2c(N)c(F)c(NC3CC3)cc21 [Compound I-15]	352 nM	2%	2%	223 nM		
CCCn1cc(C(=O)O)c(=O)c2c(N)c(F)c(NCCN[C@@H]3C[C@H]3c3ccccc3)cc21 (relative stereo) [Compound I-87]	114 nM	15%		157 nM	3300 nM	
CCn1cc(C(=O)O)c(=O)c2c(N)c(F)c(N[C@@H]3CC[C@H]3c3ccccc3)cc21 (relative stereo) [Compound I-13]	628 nM	18%	26%	555 nM		
CCn1cc(C(=O)O)c(=O)c2c(N)c(F)c(N3CCC(N[C@@H]4C[C@H]4c4ccccc4)CC3)cc21 (relative stereo) [Compound I-26]	> 10000 nM	53%		> 10000 nM	1500 nM	
CCn1cc(C(=O)O)c(=O)c2c(N)c(F)c(NC3CC(N[C@@H]4C[C@H]4c4ccccc4)C3)cc21 (relative stereo) [Compound I-70]	207 nM			169 nM	1100 nM	> 100000 nM
CCn1cc(C(=O)O)c(=O)c2c(N)c(F)c(NC3CCOCC3)cc21 [Compound I-8]	713 nM	1%	10%	452 nM		
CCn1cc(C(N)=O)c(=O)c2c(N)c(F)c(NCCN[C@H]3C[C@@H]3c3ccccc3)cc21 (relative stereo) [Compound I-83]	3.3 nM			3.4 nM	230 nM	> 100000 nM
CCn1cc(C(=O)O)c(=O)c2c(N)c(F)c(NC3CCC3)cc21 [Compound I-12]	82 nM	0%	36%	55 nM		
CCn1cc(C(=O)O)c(=O)c2c(N)c(F)c(NCCc3ccccc3)cc21 [Compound I-18]	121 nM	1%	11%	231 nM		
CCn1cc(C(=O)O)c(=O)c2c(N)c(F)c(NC3CN(c4ccccc4)C3)cc21 [Compound I-69]	61 nM	3%	17%	52 nM		
CCn1cc(C(=O)O)c(=O)c2c(N)c(F)c(NCCN[C@@H]3C[C@]34CCc3ccccc34)cc21 (relative stereo) [Compound I-81]	457 nM			546 nM	58 nM	43000 nM
Nc1c(F)c(N[C@@H]2C[C@H]2c2ccccc2)c(F)c2c1c(=O)c(C(=O)O)cn2C1CC1 (relative stereo) [Compound I-32]	1600 nM	36%	40%	2100 nM		
CCn1cc(C(=O)O)c(=O)c2c(N)c(F)c(N[C@H]3CC[C@@H](N[C@@H]4C[C@H]4c4ccccc4)CC3)cc21 (relative stereo) [Compound I-28]	451 nM	65%		691 nM	1300 nM	
CCn1cc(C(=O)O)c(=O)c2c(N)c(F)c(N[C@@H]3C[C@@H]3c3ccccc3)cc21 (relative stereo) [Compound I-23]	221 nM	16%	26%	770 nM		
CCn1cc(C(=O)O)c(=O)c2c(N)c(F)c(N[C@H]3CC[C@H](N[C@@H]4C[C@H]4c4ccccc4)CC3)cc21 (relative stereo) [Compound I-27]	47 nM	45%		75 nM	1600 nM	
CCn1cc(C(=O)O)c(=O)c2c(N)cc(NCCc3ccccc3)c(F)c21 [Compound I-65]	> 10000 nM	38%	88%	> 10000 nM		
CCn1cc(C(=O)O)c(=O)c2c(N)c(F)c(N[C@H]3C[C@@H]3c3ccccc3)cc21 [Compound I-22]	137 nM	2%	11%	115 nM		
CC(C)n1cc(C(=O)O)c(=O)c2c(N)c(F)c(N[C@]3(C)C[C@@H](N[C@@H]4C[C@H]4c4ccccc4)C3)cc21 (relative stereo) [Compound I-93]	3950 nM	2%	3%	6540 nM		
CCn1cc(C(=O)O)c(=O)c2c(N)cc(N[C@@H]3C[C@H]3c3ccccc3)cc21 (relative stereo) [Compound I-59]	4680 nM	24%	11%	4430 nM		
CCn1cc(C(=O)O)c(=O)c2c(N)c(F)c(NCCN[C@@H]3C[C@H]3c3ccccc3)cc21 (relative stereo) [Compound I-29]	119 nM	54%		303 nM	6900 nM	
CC(C)n1cc(C(=O)O)c(=O)c2c(N)c(F)c(NCCN[C@@H]3C[C@H]3c3ccccc3)cc21 (relative stereo) [Compound I-88]	19.5 nM	14%		83 nM	2600 nM	
